One test concerns the target human CSNK1D (Homo sapiens (Human), UniProt P48730). Nature of the test: CSNK1D assay (ADP-Glo, 1 μM ATP). In kind it is biochemical. Conditions: median, Table 2, read-out: CSNK1D IC50 [mol/l] (median). Here is the method: CSNK1D-inhibitory activity of compounds of the present invention in presence of 1 μM adenosine-tri-phosphate (ATP) was quantified employing the CSNK1D assay as described in the following paragraphs. In essence, the enzyme activity is measured by quantification of the adenosine-di-phosphate (ADP), which is generated as a co-product of the enzyme reaction, via the “ADP-Glo™ Kinase Assay” kit from the company Promega. This detection system works as follows: In a first step the ATP not consumed in the kinase reaction is quantitatively converted to cAMP employing an adenylate cyclase (“ADP-Glo-reagent”), then the adenylate cyclase is stopped and the ADP generated in the kinase reaction converted to ATP which generates in a luciferase-based reaction a glow-luminescence signal (“Kinase Detection Reagent”).
Recombinant fusion protein of N-terminal Glutathion-S-Transferase (GST) and full-length human CSNK1D, expressed by baculovirus infected insect cells and purified via Glutathion affinity chromatography, was purchased from Life Technologies (product no. PV3665) and used as enzyme. As substrate for the kinase reaction the biotinylated peptide Btn-Ahx-SGSEGDSESGEEEG (C-terminus in amide form) was used which can be purchased e.g. from the company Biosyntan (Berlin-Buch, Germany).
For the assay 50 nl of a 100 fold concentrated solution of the test compound in DMSO was pipetted into a white 1536-well microtiter plate (Greiner Bio-One, Frickenhausen, Germany), 2 μL of a solution of CSNK1D in aqueous assay buffer [50 mM HEPES pH 7.5, 10% (v/v) glycerol, 10 mM MgCl2, 50 mM NaCl, 1 mM dithiothreitol, 0.01% (w/v) bovine serum albumin, 0.01% (v/v) Triton X-100] were added and the mixture was incubated for 15 min at 22° C. to allow pre-binding of the test compounds to the enzyme before the start of the kinase reaction. Then the kinase reaction was started by the addition of 3 μL of a solution of ATP (1.67 μM=>final conc. in the 5 μL assay volume is 1 μM) and peptide substrate (50 μM=>final conc. in the 5 μL assay volume is 30 μM) in assay buffer and the resulting mixture was incubated for a reaction time of 30 min at 22° C. The concentration of CSNK1D was adjusted depending of the activity of the enzyme lot and was chosen appropriate to have the assay in the linear range, a typical concentration is about 0.5 ng/μL. The reaction was stopped by the addition of 2.5 μL of “ADP-Glo-reagent” (1:1.5 fold diluted with water) and the resulting mixture was incubated at 22° C. for 1 h to convert the ATP not consumed in the kinase reaction completely […]. Subsequently 2.5 μL of the “kinase detection reagent” (1.2 fold more concentrated than recommended by the producer) were added, the resulting mixture was incubated at 22° C. for 1 h and then the luminescence measured with a suitable measurement instrument (e.g. Viewlux™ from Perkin-Elmer). The amount of emitted light was taken as a measure for the amount of ADP generated and thereby for the activity of the CSNK1D.
(§1) The data were normalised (enzyme reaction without inhibitor=0% inhibition, all other assay components but no enzyme=100% inhibition).

The target in a further test is human CSNK1A1 (Homo sapiens (Human), UniProt P48729). Nature of the test: CSNK1A1 Assay 2 (ADP-Glo, 1 μM ATP). Format: biochemical. Conditions: median, Table 2, read-out: CSNK1A1 Assay 2 IC50 [mol/l] (median). Here is the method: CSNK1A1-inhibitory activity of compounds of the present invention in presence of 1 μM adenosine-tri-phosphate (ATP) was quantified employing the CSNK1A1 assay as described in the following paragraphs. In essence, the enzyme activity is measured by quantification of the adenosine-di-phosphate (ADP), which is generated as a co-product of the enzyme reaction, via the “ADP-Glo™ Kinase Assay” kit from the company Promega. This detection system works as follows: In a first step the ATP not consumed in the kinase reaction is quantitatively converted to cAMP employing an adenylate cyclase (“ADP-Glo-reagent”), then the adenylate cyclase is stopped and the ADP generated in the kinase reaction converted to ATP which generates in a luciferase-based reaction a glow-luminescence signal (“Kinase Detection Reagent”).
Sequence of human CSNK1A1 (P48729 whole entry): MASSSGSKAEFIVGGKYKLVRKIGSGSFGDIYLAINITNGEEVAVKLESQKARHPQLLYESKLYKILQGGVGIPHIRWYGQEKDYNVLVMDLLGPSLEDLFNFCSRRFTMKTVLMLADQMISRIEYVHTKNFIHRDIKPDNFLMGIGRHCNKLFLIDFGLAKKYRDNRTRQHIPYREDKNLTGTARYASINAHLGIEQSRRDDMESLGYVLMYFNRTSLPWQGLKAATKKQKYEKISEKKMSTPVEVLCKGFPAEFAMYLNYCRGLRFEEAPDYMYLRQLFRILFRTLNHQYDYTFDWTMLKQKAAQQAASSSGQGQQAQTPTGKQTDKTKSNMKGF
Recombinant fusion protein of N-terminal Glutathion-S-Transferase (GST) and full-length human CSNK1A1, expressed by baculovirus infected insect cells and purified via Glutathion affinity chromatography, was purchased from Life Technologies (product no. PV4174) and used as enzyme. As substrate for the kinase reaction the biotinylated peptide biotin-Ahx-KRRRAL-pS-VASLPGL (C-terminus in amide form) was used which can be purchased e.g. from the company Biosyntan (Berlin-Buch, Germany).
For the assay 50 nl of a 100 fold concentrated solution of the test compound in DMSO was pipetted into a white 1536-well microtiter plate (Greiner Bio-One, Frickenhausen, Germany), 2 μL of a solution of CSNK1A1 in aqueous assay buffer [50 mM HEPES pH 7.5, 10% (v/v) glycerol, 10 mM MgCl2, 50 mM NaCl, 1 mM dithiothreitol, 0.01% (w/v) bovine serum albumin, 0.01% (v/v) Triton X-100] were added and the mixture was incubated for 15 min at 22° C. to allow pre-binding of the test compounds to the enzyme before the start of the kinase reaction. Then the kinase reaction was started by the addition of 3 μL of a solution of ATP (1.67 μM=>final conc. in the 5 μL assay volume is 1 μM) and peptide substrate (50 μM=>final conc. in the 5 μL assay volume is 30 μM) in assay buffer and the resulting mixture was incubated for a reaction time of 30 min at 22° C. The concentration of CSNK1A1 was adjusted depending of the activity of the enzyme lot and was chosen appropriate to have the assay in the linear range, a typical concentrations are about 0.0375 ng/μL. The reaction was stopped by the addition of 2.5 μL of “ADP-Glo-reagent” (1:1.5 fold diluted with water) and the resulting mixture was incubated at 22° C. for 1 h to convert the ATP not consumed in the kinase reaction completely […]. Subsequently 2.5 μL of the “kinase detection reagent” (1.2 fold more concentrated than recommended by the producer) were added, the resulting mixture was incubated at 22° C. for 1 h and then the luminescence measured with a suitable measurement instrument (e.g. Viewlux™ from Perkin-Elmer). The amount of emitted light was taken as a measure for the amount of ADP generated and thereby for the activity of the CSNK1A1.
as §1

Sequence of human CSNK1D (P48730 whole entry): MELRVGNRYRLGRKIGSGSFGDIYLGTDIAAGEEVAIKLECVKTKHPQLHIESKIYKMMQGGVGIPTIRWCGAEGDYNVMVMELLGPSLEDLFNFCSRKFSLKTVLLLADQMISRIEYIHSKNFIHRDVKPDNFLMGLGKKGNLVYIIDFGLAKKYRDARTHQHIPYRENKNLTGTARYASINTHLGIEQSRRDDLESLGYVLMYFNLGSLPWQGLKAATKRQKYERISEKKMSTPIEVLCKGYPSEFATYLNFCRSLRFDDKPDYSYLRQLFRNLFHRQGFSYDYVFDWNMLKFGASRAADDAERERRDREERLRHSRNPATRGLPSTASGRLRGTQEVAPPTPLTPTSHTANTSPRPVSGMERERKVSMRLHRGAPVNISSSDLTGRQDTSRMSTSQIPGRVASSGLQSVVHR

Take `Cn1cc(CC(F)(F)F)c2[nH]c(-c3ccnc(NC(=O)Cc4ccc(F)cc4)c3)c(Nc3ccccc3)c2c1=O` [Example 34, N-{4-[3-anilino-5-methyl-4-oxo-7-(2,2,2-trifluoroethyl)-4,5-dihydro-1H-pyrrolo[3,2-c]pyridin-2-yl]pyridin-2-yl}-2-(4-fluorophenyl)acetamide]: the IC50 at human CSNK1D was determined as 9.1 nM; at human CSNK1A1, 4.3 nM.
Turning to `O=C1N[C@@H]2CCC[C@@H]2c2[nH]c(-c3ccnc(NC(=O)C(CC(F)F)c4ccc(F)cc4)c3)c(Nc3ccccc3)c21` (mixture of isomers) [Example 21, (2RS)—N-{4-[cis-3-anilino-4-oxo-1,4,5,5a,6,7,8,8a-octahydrocyclopenta[b]pyrrolo[2,3-d]pyridin-2-yl]pyridin-2-yl}-4,4-difluoro-2-(4-fluorophenyl)butanamide], the IC50 at human CSNK1D came to 18 nM; at human CSNK1A1 it was 11 nM.
The like results for `CN1CC(CC(F)F)c2[nH]c(-c3ccnc(NC(=O)Cc4ccc(F)cc4)c3)c(Nc3ccccc3)c2C1=O` (single isomer, unassigned) [Example 44, N-{4-[3-anilino-7-(2,2-difluoroethyl)-5-methyl-4-oxo-4,5,6,7-tetrahydro-1H-pyrrolo[3,2-c]pyridin-2-yl]pyridin-2-yl}-2-(4-fluorophenyl)acetamide] were, in that order, 5.9 nM and 3.3 nM.
On to `Cn1cc(CC(F)(F)F)c2[nH]c(-c3ccnc(NC(=O)C(CC(F)F)c4ccc(F)cc4)c3)c(Nc3ccccc3)c2c1=O` (single isomer, unassigned) [Example 36, N-{4-[3-anilino-5-methyl-4-oxo-7-(2,2,2-trifluoroethyl)-4,5-dihydro-1H-pyrrolo[3,2-c]pyridin-2-yl]pyridin-2-yl}-4,4-difluoro-2-(4-fluorophenyl)butanamide], for which the IC50 worked out at 7.6 nM on human CSNK1D and 6.2 nM on human CSNK1A1.
Taken in the same sequence, the figures for `CN1CC(CC(F)(F)F)c2[nH]c(-c3ccnc(NC(=O)Cc4ccc(F)cc4)c3)c(Nc3ccccc3)c2C1=O` (single isomer, unassigned) [Example 16, N-{4-[3-anilino-5-methyl-4-oxo-7-(2,2,2-trifluoroethyl)-4,5,6,7-tetrahydro-1H-pyrrolo[3,2-c]pyridin-2-yl]pyridin-2-yl}-2-(4-fluorophenyl)acetamide] were 7.1 nM and 4.3 nM.
The like results for `Cn1cc(CC(F)(F)F)c2[nH]c(-c3ccnc(NC(=O)C(CC(F)F)c4ccc(F)cc4)c3)c(Nc3ccccc3)c2c1=O` (single isomer, unassigned) [Example 37, N-{4-[3-anilino-5-methyl-4-oxo-7-(2,2,2-trifluoroethyl)-4,5-dihydro-1H-pyrrolo[3,2-c]pyridin-2-yl]pyridin-2-yl}-4,4-difluoro-2-(4-fluorophenyl)butanamide] were, in that order, 15 nM and 12 nM.
The like results for `CN1CC(CC(F)(F)F)c2[nH]c(-c3ccnc(NC(=O)C(CC(F)F)c4ccc(F)cc4)c3)c(Nc3cscn3)c2C1=O` (single isomer, unassigned) [Example 55, (2R or S)-4,4-difluoro-2-(4-fluorophenyl)-N-{4-[(7R or S)-5-methyl-4-oxo-3-[(1,3-thiazol-4-yl)amino]-7-(2,2,2-trifluoroethyl)-4,5,6,7-tetrahydro-1H-pyrrolo[3,2-c]pyridin-2-yl]pyridin-2-yl}butanamide] were, in that order, 110 nM and 59 nM.
Regarding `Cc1cn(C)c(=O)c2c(Nc3ccccc3)c(-c3ccnc(NC(=O)C(CC(F)F)c4ccc(F)cc4)c3)[nH]c12` (single isomer, unassigned) [Example 12, N-[4-(3-anilino-5,7-dimethyl-4-oxo-4,5-dihydro-1H-pyrrolo[3,2-c]pyridin-2-yl)pyridin-2-yl]-4,4-difluoro-2-(4-fluorophenyl)butanamide], the IC50 at human CSNK1D was 160 nM; on human CSNK1A1 it was 180 nM.
Taken in the same sequence, the figures for `CN1CC(CC(F)(F)F)c2[nH]c(-c3ccnc(NC(=O)C(CC(F)F)c4ccc(F)cc4)c3)c(Nc3ccccc3)c2C1=O` (stereo not drawn) [Example 17, N-{4-[3-anilino-5-methyl-4-oxo-7-(2,2,2-trifluoroethyl)-4,5,6,7-tetrahydro-1H-pyrrolo[3,2-c]pyridin-2-yl]pyridin-2-yl}-4,4-difluoro-2-(4-fluorophenyl)butanamide] were 17 nM and 17 nM.
Taken in the same sequence, the figures for `CN1CC(CC2CC2)c2[nH]c(-c3ccnc(NC(=O)Cc4ccc(F)cc4)c3)c(Nc3ccccc3)c2C1=O` (racemic) [Example 18, N-{4-[3-anilino-7-(cyclopropylmethyl)-5-methyl-4-oxo-4,5,6,7-tetrahydro-1H-pyrrolo[3,2-c]pyridin-2-yl]pyridin-2-yl}-2-(4-fluorophenyl)acetamide] were 12 nM and 6.6 nM.
The like results for `CC1CN(C)C(=O)c2c1[nH]c(-c1ccnc(NC(=O)C(C)c3ccc(F)cc3)c1)c2Nc1ccccc1` (racemic) [Example 9, N-{4-[(7RS)-3-anilino-5,7-dimethyl-4-oxo-4,5,6,7-tetrahydro-1H-pyrrolo[3,2-c]pyridin-2-yl]pyridin-2-yl}-2-(4-fluorophenyl)propanamide] were, in that order, 12 nM and 5.6 nM.
On to `CN1CC(CC(F)(F)F)c2[nH]c(-c3ccnc(NC(=O)C(CC(F)F)c4ccc(F)cc4)c3)c(Nc3cscn3)c2C1=O` (single isomer, unassigned) [Example 54, (2R or S)-4,4-difluoro-2-(4-fluorophenyl)-N-{4-[(7R or S)-5-methyl-4-oxo-3-[(1,3-thiazol-4-yl)amino]-7-(2,2,2-trifluoroethyl)-4,5,6,7-tetrahydro-1H-pyrrolo[3,2-c]pyridin-2-yl]pyridin-2-yl}butanamide], for which the IC50 was found to be 4 nM on human CSNK1D and 3 nM at human CSNK1A1.

These data come from patent US20230365554A1, “SUBSTITUTED PYRROLO-PYRIDINONE DERIVATIVES AND THERAPEUTIC USES THEREOF” (The Broad Institute, Inc., priority 2020, published 2023).
